We go through three substances from patent publication US10856562B2, “Flavor composition and edible compositions containing same” (MARS, INCORPORATED, priority 2013, dated 2020).

“Also recorded” adds a separate entry of the source. Square brackets hold non-standard residues; d marks the D form. Ends that are not written are not given here. pGlu = O=C1CC[C@@H](C(=O)O)N1

One experiment deals with panelists. The experiment in a line: Descriptive profile of umami enhancer UE-30 in solution, in-mouth (Example 5). It counts as in vivo, human. The note with it: for Astringent, in-mouth perception / Bitter, in-mouth perception / Metallic, in-mouth perception / Mineral/Flinty, in-mouth perception / Numbing, in-mouth perception / Salt, in-mouth perception / Sour, in-mouth perception / Sweet, in-mouth perception / Umami FF, in-mouth perception / Umami/Brothy, in-mouth perception: mean score, 15-point scale. The protocol: Descriptive attributes (e.g., taste, flavor and chemical feeling factors) of four use levels of a pGlu-Val-Cys (UE-30) flavor composition peptide was determined. The four use levels were as follows: 1.0 ppb, 10.0 ppb, 100.0 ppb and 1000.0 ppb.
Data was collected for the attributes of the product in-mouth for the use levels according to the following protocol: • The samples were analyzed for flavor and aftertaste by six-nine members of a panel, trained and experienced in appearance, flavor and texture evaluation using the Spectrum™ method. Samples were evaluated across multiple panel sessions. • The strength of each attribute was rated on a 15-point scale, where 0=none and 15=very strong. • This scale incorporates the ability to use tenths of a point and therefore has the potential of 150 scale differentiations. • The scale may be expanded beyond 15 points to include extreme ratings if necessary. Attribute Perception Protocol • The panelists evaluated each sample using the following procedure • Descriptive Profiles (Flavor and Chemical Feeling Factors) of 4 levels of UE-30 (umami enhancer) • Individual data (1 replication) was collected for the flavor and chemical feeling factors of the product in-mouth Sample Preparation
The 01, 10, 100 and 1000 ppb test samples of the flavor composition peptide was prepared in water as described in the table 19.
The panelists evaluated each sample for the attributes described in table 20.

Experiment [1] in a line: Salty taste of peanut butter with added peptide. It counts as in vivo. The following applies: no salt reduction, 267 ppb peptide. The protocol: All Ingredients were added into the mixing bowl and milled on the Retsch mill (model RM200) for a total of 30 minutes for two 15 minute intervals. After 15 minutes, the walls of the bowl were scraped with a spatula and then, milling was resumed.
Three batches of peanut butter were made: a control with 100% NaCl (0.05 g), a sample with 100% NaCl (0.05 g) and 267 ppb pGlu-Val-Leu, and a sample with 50% NaCl reduction (0.025 g) and with 267 ppb pGlu-Val-Leu.
A 1000 ppm stock of pGlu-Val-Leu in salt was made to be added to the peanut butter.

The nature of experiment [2]: Salty taste of NaCl-reduced potato chips with added peptide. It counts as in vivo. The note with it: 50% salt reduction, 1150 ppb peptide. As for the experimental part: All Ingredients were added into a plastic container and mixed gently.
Two batches of potato chips were made: a control with 100% NaCl (0.5 g) and a sample with 50% NaCl (0.25 g) and 1150 ppb pGlu-Val-Leu.
A 1000 ppm stock of pGlu-Val-Leu in salt was made to be added to the potato chips.

The nature of experiment [3]: Salty taste of NaCl-reduced roasted chicken flavored rice with added peptide. The class given is in vivo. The following applies: 50% NaCl reduction, 50 ppb peptide. As for the experimental part:
All Ingredients, except the rice, were placed into a container and mixed. The mixture was heated in a microwave for a total of one minute for two 30 second intervals. The rice and mixture were then mixed in a bowl. The cooking bowl was placed into a rice cooker and the cook cycle was started. After 36 minutes the rice was mixed and then allowed to cook for the remaining time for a total time of 49 minutes.
Three batches of rice were made: a control with 100% NaCl (4.7696 g), a sample with 50% NaCl (2.38 g), and the last sample had 50% NaCl (2.38 g) with 50 ppb of pGlu-Val-Leu.
Three batches of rice were made: a control with 100% NaCl, a sample with 50% NaCl, and a sample that had 50% NaCl (2.38 g) with 50 ppb of pGlu-Val-Val.
Two batches of rice were made: a control with 50% NaCl (2.38 g), and the other sample had 50% NaCl (2.38 g) with 50 ppb of pGlu-Val and 50 ppb of pGlu-Pro-Glu. Two stock solutions were made to be added to the rice: a 200 ppm stock solution of pGlu-Val in water and a 200 ppm stock solution of pGlu-Pro-Glu in water, as shown in table 44.
Three batches of rice were made: a control with 100% NaCl (4.7696 g), a sample with 40% NaCl (1.9 g), and the last sample had 40% NaCl (1.9 g) with 1 ppb of pGlu-Val-Leu and 1 ppb of pGlu-Val-Cys. […]

On to [pGlu]-Val-Cys [UE-30], for which, in the experiment with panelists (1.0 ppb in solution), the “Astringent, in-mouth perception” value came to 0.0; the “Bitter, in-mouth perception” value is on record as 0.0; the “Metallic, in-mouth perception” value is reported as 0.0; the “Mineral/Flinty, in-mouth perception” value was 0.5. In the experiment on panelists (1.0 ppb in solution), the “Numbing, in-mouth perception” value was determined as 0.0; the “Salt, in-mouth perception” value worked out at 1.9; the “Sour, in-mouth perception” value is listed as 0.0; the “Sweet, in-mouth perception” value was found to be 0.0. In the experiment on panelists (1.0 ppb in solution), the “Umami FF, in-mouth perception” value was determined as 0.5 and the “Umami/Brothy, in-mouth perception” value is reported as 0.7. Further, in the experiment with panelists (1.0 to 1000.0 ppb, in-mouth), the “Level of the remaining aromatics, basic tastes and chemical feeling factors with increasing concentration” value is “does not increase”; the “Salt perception level as the concentration increases” value was “increases slightly; also recorded: Shows increases”; the “Umami feeling factor as the concentration increases” value is listed as “increases slightly; also recorded: Shows increases”; the “Umami/brothy aromatic as the concentration increases” value is “increases slightly; also recorded: Shows increases”. Further, in the experiment with panelists (10.0 ppb in solution), the “Astringent, in-mouth perception” value turned out to be 0.0; the “Bitter, in-mouth perception” value amounted to 0.0; the “Metallic, in-mouth perception” value is 0.0; the “Mineral/Flinty, in-mouth perception” value is reported as 0.7. Besides, in the experiment with panelists (10.0 ppb in solution), the “Numbing, in-mouth perception” value worked out at 0.0; the “Salt, in-mouth perception” value is listed as 2.1; the “Sour, in-mouth perception” value was determined as 0.0; the “Sweet, in-mouth perception” value worked out at 0.0. For the same substance, in the experiment on panelists (10.0 ppb in solution), the “Umami FF, in-mouth perception” value is 1.9 and the “Umami/Brothy, in-mouth perception” value amounted to 1.0. In addition, in the experiment on panelists (100.0 ppb in solution), the “Astringent, in-mouth perception” value amounted to 0.0; the “Bitter, in-mouth perception” value stood at 0.0; the “Metallic, in-mouth perception” value was determined as 0.0; the “Mineral/Flinty, in-mouth perception” value is 0.7. Also, in the experiment on panelists (100.0 ppb in solution), the “Numbing, in-mouth perception” value stood at 0.0; the “Salt, in-mouth perception” value was determined as 2.6; the “Sour, in-mouth perception” value turned out to be 0.0; the “Sweet, in-mouth perception” value came out at 0.0. In the experiment with panelists (100.0 ppb in solution), the “Umami FF, in-mouth perception” value was 2.7 and the “Umami/Brothy, in-mouth perception” value came out at 1.8. For the same substance, in the experiment on panelists (1000.0 ppb in solution), the “Astringent, in-mouth perception” value is recorded as 0.0; the “Bitter, in-mouth perception” value is listed as 0.0; the “Metallic, in-mouth perception” value was found to be 0.0; the “Mineral/Flinty, in-mouth perception” value stood at 0.6. For the same substance, in the experiment on panelists (1000.0 ppb in solution), the “Numbing, in-mouth perception” value is 0.0; the “Salt, in-mouth perception” value stood at 3.4; the “Sour, in-mouth perception” value is 0.0; the “Sweet, in-mouth perception” value is on record as 0.0. Moreover, in the experiment with panelists (1000.0 ppb in solution), the “Umami FF, in-mouth perception” value came to 3.5 and the “Umami/Brothy, in-mouth perception” value amounted to 2.5.
[pGlu]-Val-Leu [SE-13]: the “Salty taste compared to control with 100% NaCl” value in experiment [1] and in experiment [2] was “saltier than the control” in each case.
Regarding [pGlu]-Val-Val [SE-17], the Aftertaste entry in experiment [3] is “had a salty aftertaste”.
